# According to PubChem BioAssay (NCI):
#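 Protocol summary: plate cells (96-well), add compound at 5 concentrations, incubate 48 h, interpolate endpoints linearly. GI50: concentration for 50% inhibition of growth. Definition used: TGI = concentration required for complete inhibition of growth.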
# Columns and labels:
# Assay in all cases: NCI tumour cell line growth inhibition, 48 h
# HCT-116 colon = test system: HCT-116 colon
# HOP-62 NSCLC = test system: HOP-62 NSCLC
# MALME-3M melanoma = test system: MALME-3M melanoma
# MDA-MB-435 = test system: MDA-MB-435
# NCI-H23 lung = test system: NCI-H23 lung
# OVCAR-8 ovarian = test system: OVCAR-8 ovarian
# SNB-19 CNS = test system: SNB-19 CNS
# SW-620 colon = test system: SW-620 colon
# UO-31 renal = test system: UO-31 renal
# OVCAR-3 ovarian = test system: OVCAR-3 ovarian
Compound,GI50 (HCT-116 colon),TGI (HCT-116 colon),GI50 (HOP-62 NSCLC),TGI (HOP-62 NSCLC),GI50 (MALME-3M melanoma),TGI (MALME-3M melanoma),GI50 (MDA-MB-435),TGI (MDA-MB-435),GI50 (NCI-H23 lung),TGI (NCI-H23 lung),GI50 (OVCAR-8 ovarian),TGI (OVCAR-8 ovarian),GI50 (SNB-19 CNS),TGI (SNB-19 CNS),GI50 (SW-620 colon),TGI (SW-620 colon),GI50 (UO-31 renal),TGI (UO-31 renal),TGI (OVCAR-3 ovarian),GI50 (OVCAR-3 ovarian)
COc1cc[c]([Hg][Cl])cc1,4.49 µM,18.4 µM,20.4 µM,37.8 µM,1.88 µM,3.69 µM,1.61 µM,3.2 µM,3.03 µM,22.4 µM,6.11 µM,> 100 µM,4.59 µM,16.6 µM,1.54 µM,3.18 µM,14.6 µM,28.9 µM,,
CCCOC(=O)C1CCC(=O)N1C(=O)C(Cl)Cl (stereo not given),,> 100 µM,,> 100 µM,,> 100 µM,,,,> 100 µM,,> 100 µM,,> 100 µM,,> 100 µM,,> 100 µM,> 100 µM,
CN(C)CCCn1cnc2ncccc2c1=O,,> 100 µM,,> 100 µM,,> 100 µM,,,,> 100 µM,,> 100 µM,,> 100 µM,,> 100 µM,,> 100 µM,> 100 µM,
CCCCNC(=S)Nn1c(-c2ccccc2)nc2ccccc2c1=O,,> 100 µM,,> 100 µM,,> 100 µM,,,,> 100 µM,,> 100 µM,,,,> 100 µM,,> 100 µM,,
COC(=O)C1=CC(=O)C(C(=O)Nc2ccc(OC)cc2)C(c2ccccc2)O1 (stereo not given),,> 75.9 µM,,50.9 µM,,> 84.8 µM,,,,46.6 µM,,96.8 µM,,42 µM,,> 100 µM,,90.6 µM,58.8 µM,
CCc1ccc(Cc2ccc(CC)c(NC(=O)C(=O)Cc3nc4ccccc4nc3C)c2CC)c(CC)c1NC(=O)C(=O)Cc1nc2ccccc2nc1C,,> 100 µM,,> 100 µM,,> 100 µM,,,,> 100 µM,,> 100 µM,,> 100 µM,,> 100 µM,,72.8 µM,> 100 µM,
CC(=O)NNc1nc(C)c(C(/C=C/c2ccc(/C=C/C(=N\NC(=O)c3ccncc3)c3sc(NNC(C)=O)nc3C)cc2)=N/NC(=O)c2ccncc2)s1,,> 100 µM,,> 100 µM,,> 100 µM,,,,> 100 µM,,> 100 µM,,> 100 µM,,> 100 µM,,> 100 µM,> 100 µM,
COCCNC(=O)C1C(=O)N(CCOC)C(=O)/C1=N/N (stereo not given),,> 100 µM,,,,> 100 µM,,,,> 100 µM,,,,> 100 µM,,> 100 µM,,> 100 µM,> 100 µM,
CC(C)NC(=O)OCc1nnn2c1C(OC(=O)NC(C)C)CC2 (stereo not given),,> 100 µM,,,,> 100 µM,,,,> 100 µM,,> 100 µM,,> 100 µM,,> 100 µM,,> 100 µM,> 100 µM,
CCOC(=O)C(C(=O)c1ccccc1-c1ccccc1C(=O)O)=P(c1ccccc1)(c1ccccc1)c1ccccc1,,42 µM,,40.5 µM,,66.9 µM,,,,40 µM,,> 100 µM,,92 µM,,> 100 µM,,,67 µM,
O=c1[nH]nc(-c2ccccc2)c(-c2ccccc2)c1-n1nc(-c2ccccc2)c2ccccc2c1=O,,> 100 µM,,> 100 µM,,> 100 µM,,,,> 100 µM,,> 100 µM,,,,> 100 µM,,> 100 µM,> 100 µM,
COC(=O)C1=C(O)C(O)=C(C(=O)OC)CC1,,28.9 µM,,> 100 µM,,> 100 µM,,,,> 100 µM,,> 100 µM,,> 100 µM,,> 100 µM,,> 100 µM,> 100 µM,
CN1CCC(O)C(CNC23CC4CC(CC(C4)C2)C3)C1 (stereo not given),,,,> 100 µM,,> 100 µM,,,,> 100 µM,,> 100 µM,,> 100 µM,,> 100 µM,,> 100 µM,,
CC(=O)OC1COC(N2C(=O)C(=O)c3c(C)cc(Cl)nc32)C(OC(C)=O)C1OC(C)=O (stereo not given),,> 100 µM,,> 100 µM,,> 100 µM,,,,> 100 µM,,> 100 µM,,> 100 µM,,> 100 µM,,> 100 µM,> 100 µM,
COc1ccc(NC(=O)CC/C(CC(=O)c2ccco2)=N/Nc2ccc([N+](=O)[O-])cc2[N+](=O)[O-])cc1,,> 100 µM,,> 100 µM,,> 100 µM,,,,> 100 µM,,> 100 µM,,> 100 µM,,> 100 µM,,> 100 µM,> 100 µM,
COc1ccc(CN(O)C2C(CO)OC(n3cc(I)c(=O)[nH]c3=O)C2O)cc1 (stereo not given),,> 100 µM,,> 100 µM,,> 100 µM,,,,> 100 µM,,> 100 µM,,> 100 µM,,> 100 µM,,> 100 µM,> 100 µM,
COC(=O)C1=Cc2cc3c(cc2[C@H](c2ccc4c(c2)OCO4)C1C(=O)OC)OCO3 (stereo not given in full),,> 100 µM,,> 100 µM,,> 100 µM,,,,> 100 µM,,> 100 µM,,> 100 µM,,> 100 µM,,> 100 µM,> 100 µM,
CCS[C@H]1NC(=O)C1[C@H](C)O[Si](C)(C)C(C)(C)C (stereo not given in full),,> 100 µM,,> 100 µM,,> 100 µM,,,,> 100 µM,,> 100 µM,,> 100 µM,,> 100 µM,,,> 100 µM,
Cn1cc(-c2ccc3cc(-c4ccc(CC(=O)Nc5cc(C(C)(C)C)nn5C)cc4)cnc3c2)cn1,0.191 µM,> 100 µM,0.409 µM,> 100 µM,0.146 µM,> 100 µM,0.309 µM,> 100 µM,0.407 µM,> 100 µM,0.274 µM,> 100 µM,0.473 µM,> 100 µM,0.324 µM,> 100 µM,,,> 100 µM,0.336 µM
CCN(CC)CCN(C)CC(C)(C)C(=O)/C=C/c1ccccc1,,,,37 µM,,28.5 µM,,,,25.7 µM,,43.2 µM,,28.4 µM,,24.2 µM,,26.2 µM,26.2 µM,
COc1ccc(NC(=O)c2ccc(NC3=C(Cl)C(=O)N(Cc4ccccc4)C3=O)cc2)cc1,2.36 µM,4.89 µM,17.1 µM,32.6 µM,,,5.64 µM,18.3 µM,8.38 µM,30 µM,3.84 µM,18.2 µM,18 µM,40.4 µM,4.83 µM,> 100 µM,2.66 µM,11.3 µM,6.12 µM,2.11 µM
